These compounds were tested against T1, human FOXO1 (constitutively active form Thr24Ala, Ser256Ala, Ser319Ala) (Homo sapiens, UniProt Q12778, S256A/S319A/T24A) (assay: FOXO1 inhibitor activity assay: cell-based transcriptional (luciferase) reporter assay in HEK293 cells). Details: HEK293 cells transfected with insulin response element firefly luciferase reporter, FOXO1 and Renilla luciferase; 10-point dose response 50 μM to 2.5 nM; 24 hours.
T1 construct: expressed in transfected cells; host or cells: HEK293 cells transfected with pcDNA3.1 plasmid
T1 sequence (Q12778 whole entry T24A/S256A/S319A): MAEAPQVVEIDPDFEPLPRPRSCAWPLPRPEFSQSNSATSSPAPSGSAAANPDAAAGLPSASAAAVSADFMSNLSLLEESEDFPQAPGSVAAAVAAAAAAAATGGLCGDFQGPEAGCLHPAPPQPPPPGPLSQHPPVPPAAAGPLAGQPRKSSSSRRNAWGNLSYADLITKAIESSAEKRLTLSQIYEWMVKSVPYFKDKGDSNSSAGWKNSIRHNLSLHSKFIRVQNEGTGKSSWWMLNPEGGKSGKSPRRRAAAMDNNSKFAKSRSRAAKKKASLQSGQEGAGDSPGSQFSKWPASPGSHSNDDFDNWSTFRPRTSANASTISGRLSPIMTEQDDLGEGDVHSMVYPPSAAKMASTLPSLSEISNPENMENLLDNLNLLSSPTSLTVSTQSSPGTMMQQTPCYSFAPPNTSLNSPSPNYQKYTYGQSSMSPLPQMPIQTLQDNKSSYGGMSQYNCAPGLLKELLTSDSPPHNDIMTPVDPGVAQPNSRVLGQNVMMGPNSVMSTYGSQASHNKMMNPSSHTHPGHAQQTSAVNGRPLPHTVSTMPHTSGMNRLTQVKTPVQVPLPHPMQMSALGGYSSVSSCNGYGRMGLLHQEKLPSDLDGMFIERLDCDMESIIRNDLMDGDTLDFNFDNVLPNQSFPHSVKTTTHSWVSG
How it was run: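 IC50 and maximal inhibition were fitted by 4-parameter logistic regression on normalized firefly/Renilla luciferase ratios. The 0% reference used RFP in place of FOXO1, and the 100% reference was DMSO-only with all plasmids.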

SMILES | IC50
Cn1nc(NC(=O)c2ccc(N3CCNC(=O)C3)nc2)cc1-c1nc2ccccc2[nH]1 [Compound A-221, N-[5-(1H-benzimidazol-2-yl)-1-methyl-pyrazol-3-yl]-6-(3-oxopiperazin-1-yl)pyridine-3-carboxamide] | 300 to 1000 nM
Cn1nc(NC(=O)c2ccc(N3CC[C@@H](O)C3)nc2)cc1-c1nc2ccccc2[nH]1 [Compound A-225, N-[5-(1H-benzimidazol-2-yl)-1-methyl-pyrazol-3-yl]-6-[(3R)-3-hydroxy-pyrrolidin-1-yl]pyridine-3-carboxamide] | 300 to 1000 nM
C[C@@H]1COCCN1c1ccc(C(=O)Nc2cc(-c3nc4ccccc4[nH]3)n(C)n2)cn1 [Compound A-229, N-[5-(1H-benzimidazol-2-yl)-1-methyl-pyrazol-3-yl]-6-[(3R)-3-methylmorpholin-4-yl]pyridine-3-carboxamide] | 100 to 300 nM
C[C@H]1COCCN1c1ccc(C(=O)Nc2cc(-c3nc4ccccc4[nH]3)n(C)n2)cn1 [Compound A-230, N-[5-(1H-benzimidazol-2-yl)-1-methyl-pyrazol-3-yl] -6-[(3S)-3-methylmorpholin-4-yl]pyridine-3-carboxamide] | 100 to 300 nM
Cc1cc(N2CCOCC2)ncc1C(=O)Nc1cc(-c2nc3ccccc3[nH]2)n(C)n1 [Compound A-232, N-[5-(1H-benzimidazol-2-yl)-1-methyl-pyrazol-3-yl]-4-methyl-6-morpholino-pyridine-3-carboxamide] | > 1000 nM
CC(=O)N1CCN(c2ccc(C(=O)Nc3cc(-c4nc5ccccc5[nH]4)[nH]n3)cn2)CC1 [Compound A-233] | 300 to 1000 nM
COc1ccc(C(=O)Nc2nc(-c3nc4ccccc4[nH]3)n(C)n2)cc1Cl [Compound A-234, N-[5-(1H-benzimidazol-2-yl)-1-methyl-1,2,4-triazol-3-yl]-3-chloro-4-methoxy-benzamide] | 300 to 1000 nM
CN1CCN(c2ccc(C(=O)Nc3cc(-c4nc5ccccc5[nH]4)n(C)n3)cc2)CC1=O [Compound A-235, N-[5-(1H-benzimidazol-2-yl)-1-methyl-pyrazol-3-yl]-4-(4-methyl-3-oxo-piperazin-1-yl)benzamide] | 100 to 300 nM
Cc1nc(N2CCOCC2)ccc1C(=O)Nc1cc(-c2nc3ccccc3[nH]2)n(C)n1 [Compound A-236] | 100 to 300 nM
Cn1nc(NC(=O)c2ccc(N3CCOCC3CO)nc2)cc1-c1nc2ccccc2[nH]1 (stereo not shown) [Compound A-238, N-[5-(1H-benzimidazol-2-yl)-1-methyl-pyrazol-3-yl]-6-[3-(hydroxymethyl)morpholin-4-yl]pyridine-3-carboxamide] | 100 to 300 nM
COc1cc(F)c2[nH]c(-c3cc(NC(=O)c4ccc(N5CCOC(CO)C5)nc4)n[nH]3)nc2c1 (stereo not shown) [Compound A-239, N-[5-(7-fluoro-5-methoxy-1H-benzimidazol-2-yl)-1H-pyrazol-3-yl]-6-[2-(hydroxymethyl)morpholin-4-yl]pyridine-3-carboxamide] | > 1000 nM
CN1CCN(c2ccc(C(=O)Nc3nc(-c4nc5ccccc5[nH]4)n(C)n3)cc2)CC1 [Compound A-241, N-[5-(1H-benzimidazol-2-yl)-1-methyl-1,2,4-triazol-3-yl]-4-(4-methylpiperazin-1-yl)benzamide] | 300 to 1000 nM
CN1CCN(c2ccc(C(=O)Nc3cc(-c4nc5ccccc5[nH]4)[nH]n3)cc2)CC1=O [Compound A-242, N-[5-(1H-benzimidazol-2-yl)-1H-pyrazol-3-yl]-4-(4-methyl-3-oxo-piperazin-1-yl)benzamide] | 100 to 300 nM
CN1CCN(c2ccc(C(=O)Nc3cc(-c4nc5ccccc5[nH]4)[nH]n3)cn2)CC1=O [Compound A-243, N-[5-(1H-benzimidazol-2-yl)-1H-pyrazol-3-yl]-6-(4-methyl-3-oxo-piperazin-1-yl)pyridine-3-carboxamide] | 300 to 1000 nM
CC(C)C(=O)N1CCN(c2ccc(C(=O)Nc3cc(-c4nc5ccccc5[nH]4)n(C)n3)cn2)CC1 [Compound A-244, N-[5-(1H-benzimidazol-2-yl)-1-methyl-pyrazol-3-yl]-6-[4-(2-methylpropanoyl)piperazin-1-yl]pyridine-3-carboxamide] | 100 to 300 nM
CN1CCN(c2ccc(C(=O)Nc3cc(-c4nc5ccccc5[nH]4)n(C)n3)cn2)CC1=O [Compound A-246, N-[5-(1H-benzimidazol-2-yl)-1-methyl-pyrazol-3-yl]-6-(4-methyl-3-oxo-piperazin-1-yl)pyridine-3-carboxamide] | 100 to 300 nM
Cn1nc(NC(=O)c2ccc(N3CCN4C(=O)CC[C@@H]4C3)nc2)cc1-c1nc2ccccc2[nH]1 [Compound A-249, 6-[(8aR)-6-oxo-1,3,4,7,8,8a-hexahydropyrrolo[1,2-a]pyrazin-2-yl]-N-[5-(1H-benzimidazol-2-yl)-1-methyl-pyrazol-3-yl]pyridine-3-carboxamide] | 100 to 300 nM
Cn1nc(NC(=O)c2ccc(N3CCN4C(=O)CC[C@H]4C3)nc2)cc1-c1nc2ccccc2[nH]1 [Compound A-250] | 300 to 1000 nM
Cc1nc(N2CCN(C)CC2)ccc1C(=O)Nc1cc(-c2nc3ccccc3[nH]2)n(C)n1 [Compound A-253, N-[5-(1H-benzimidazol-2-yl)-1-methyl-pyrazol-3-yl]-2-methyl-6-(4-methylpiperazin-1-yl)pyridine-3-carboxamide] | 100 to 300 nM

Results, then the compound that gave them:

IC50 | SMILES
100 to 300 nM | O=C(Nc1cc(-c2nc3ccccc3[nH]2)[nH]n1)c1ccc(N2CCNCC2)nc1 [Compound A-218, N-[5-(1H-benzimidazol-2-yl)-1H-pyrazol-3-yl]-6-piperazin-1-yl-pyridine-3-carboxamide]
< 100 nM | COc1cc(F)c2[nH]c(-c3cc(NC(=O)c4ccc(N5CCN(C6COC6)CC5)cc4)nn3C)nc2c1 [Compound A-219, N-[5-(7-fluoro-5-methoxy-1H-benzimidazol-2-yl)-1-methyl-pyrazol-3-yl]-4-[4-(oxetan-3-yl)piperazin-1-yl]benzamide]
< 100 nM | O=C(Nc1cc(-c2nc3ccccc3[nH]2)[nH]n1)c1ccc(N2CCN(C3COC3)CC2)cc1 [Compound A-220, N-[5-(1H-benzimidazol-2-yl)-1H-pyrazol-3-yl]-4-[4-(oxetan-3-yl)piperazin-1-yl]benzamide]
< 100 nM | COc1cc(F)c2[nH]c(-c3cc(NC(=O)c4ccc(N5CCN(CCO)CC5)cc4)nn3C)nc2c1 [Compound A-222, N-[5-(7-fluoro-5-methoxy-1H-benzimidazol-2-yl)-1-methyl-pyrazol-3-yl]-4-[4-(2-hydroxyethyl)piperazin-1-yl]benzamide]
< 100 nM | Cn1nc(NC(=O)c2ccc(OCCO)c(C(F)(F)F)c2)cc1-c1nc2ccccc2[nH]1 [Compound A-223, N-[5-(1H-benzimidazol-2-yl)-1-methyl-pyrazol-3-yl]-4-(2-hydroxyethoxy)-3-(trifluoromethyl)benzamide]
100 to 300 nM | Cn1nc(NC(=O)c2ccc(N3CCOC(CO)C3)nc2)cc1-c1nc2ccccc2[nH]1 (stereo not shown) [Compound A-224, N-[5-(1H-benzimidazol-2-yl)-1-methyl-pyrazol-3-yl]-6-[2-(hydroxy-methyl)morpholin-4-yl]pyridine-3-carboxamide]
100 to 300 nM | CC(=O)N1CCN(c2ccc(C(=O)Nc3cc(-c4nc5ccccc5[nH]4)n(C)n3)cn2)CC1 [Compound A-226, 6-(4-acetylpiperazin-1-yl)-N-[5-(1H-benzimidazol-2-yl)-1-methyl-pyrazol-3-yl]pyridine-3-carboxamide]
100 to 300 nM | Cn1nc(NC(=O)c2ccc(N3CCN4C(=O)CCC4C3)nc2)cc1-c1nc2ccccc2[nH]1 (stereo not shown) [Compound A-228, N-[5-(1H-benzimidazol-2-yl)-1-methyl-pyrazol-3-yl]-6-(6-oxo-1,3,4,7,8,8a-hexahydropyrrolo[1,2-a]pyrazin-2-yl)pyridine-3-carboxamide]
< 100 nM | COc1cc(F)c2[nH]c(-c3cc(NC(=O)c4ccc(N5CCOC(CO)C5)nc4)nn3C)nc2c1 (stereo not shown) [Compound A-237, N-[5-(7-fluoro-5-methoxy-1H-benzimidazol-2-yl)-1-methyl-pyrazol-3-yl]-6-[2-(hydroxymethyl)morpholin-4-yl]pyridine-3-carboxamide]
< 100 nM | COc1cc(F)c2[nH]c(-c3cc(NC(=O)c4ccc(N5CCN(C(C)=O)CC5)nc4)nn3C)nc2c1 [Compound A-240, 6-(4-acetylpiperazin-1-yl)-N-[5-(7-fluoro-5-methoxy-1H-benzimidazol-2-yl)-1-methyl-pyrazol-3-yl]pyridine-3-carboxamide]
< 100 nM | C[C@H]1CN(c2ccc(C(=O)Nc3cc(-c4nc5ccccc5[nH]4)n(C)n3)cn2)CCN1 [Compound A-245, N-[5-(1H-benzimidazol-2-yl)-1-methyl-pyrazol-3-yl]-6-[(3S)-3-methylpiperazin-1-yl]pyridine-3-carboxamide]
< 100 nM | C[C@@H]1CN(c2ccc(C(=O)Nc3cc(-c4nc5ccccc5[nH]4)n(C)n3)cn2)CCN1 [Compound A-247, N-[5-(1H-benzimidazol-2-yl)-1-methyl-pyrazol-3-yl]-6-[(3R)-3-methylpiperazin-1-yl]pyridine-3-carboxamide]
< 100 nM | Cn1nc(NC(=O)c2ccc(N3CCO[C@@H](CO)C3)nc2)cc1-c1nc2ccccc2[nH]1 [Compound A-248, N-[5-(1H-benzimidazol-2-yl)-1-methyl-pyrazol-3-yl]-6-[(2R)-2-(hydroxymethyl)morpholin-4-yl]pyridine-3-carboxamide]
< 100 nM | Cn1nc(NC(=O)c2ccc(N3CCO[C@H](CO)C3)nc2)cc1-c1nc2ccccc2[nH]1 [Compound A-251, N-[5-(1H-benzimidazol-2-yl)-1-methyl-pyrazol-3-yl]-6-[(2S)-2-(hydroxymethyl)morpholin-4-yl]pyridine-3-carboxamide]
< 100 nM | Cn1nc(NC(=O)c2ccc(OC3COC3)c(Cl)c2)cc1-c1nc2ccccc2[nH]1 [Compound A-252, N-[5-(1H-benzimidazol-2-yl)-1-methyl-pyrazol-3-yl]-3-chloro-4-(oxetan-3-yloxy)benzamide]

From US20230416228A1 (Forkhead Biotherapeutics, Inc., priority 2020, published 2023)
